{"source": "paper PMC9719519", "about": "“Non-classical ferroptosis inhibition by a small molecule targeting PHB2” (Nature Communications, 2022)", "assay_in_all_cases": "biochemical", "set-up_in_all_cases": "Eurofins recombinant human kinase profiling, remaining kinase activity as % of control, 10 uM ATP", "conditions_in_all_cases": "ATP 10 uM; read-out: %Ctrl@10 μM", "key": {"Wee1B(h)": {"molecular_target": "T1, Wee1B(h) (Homo sapiens, UniProt P0C1S8)", "T1 construct": "gene WEE2", "in_short": "(§1)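 Activity measured in a commercial panel of 401 recombinant human protein kinases run as a kinase profiling service.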"}, "ULK2(h)": {"molecular_target": "ULK2(h) (Homo sapiens, UniProt Q8IYT8)", "sequence (Q8IYT8 whole entry)": "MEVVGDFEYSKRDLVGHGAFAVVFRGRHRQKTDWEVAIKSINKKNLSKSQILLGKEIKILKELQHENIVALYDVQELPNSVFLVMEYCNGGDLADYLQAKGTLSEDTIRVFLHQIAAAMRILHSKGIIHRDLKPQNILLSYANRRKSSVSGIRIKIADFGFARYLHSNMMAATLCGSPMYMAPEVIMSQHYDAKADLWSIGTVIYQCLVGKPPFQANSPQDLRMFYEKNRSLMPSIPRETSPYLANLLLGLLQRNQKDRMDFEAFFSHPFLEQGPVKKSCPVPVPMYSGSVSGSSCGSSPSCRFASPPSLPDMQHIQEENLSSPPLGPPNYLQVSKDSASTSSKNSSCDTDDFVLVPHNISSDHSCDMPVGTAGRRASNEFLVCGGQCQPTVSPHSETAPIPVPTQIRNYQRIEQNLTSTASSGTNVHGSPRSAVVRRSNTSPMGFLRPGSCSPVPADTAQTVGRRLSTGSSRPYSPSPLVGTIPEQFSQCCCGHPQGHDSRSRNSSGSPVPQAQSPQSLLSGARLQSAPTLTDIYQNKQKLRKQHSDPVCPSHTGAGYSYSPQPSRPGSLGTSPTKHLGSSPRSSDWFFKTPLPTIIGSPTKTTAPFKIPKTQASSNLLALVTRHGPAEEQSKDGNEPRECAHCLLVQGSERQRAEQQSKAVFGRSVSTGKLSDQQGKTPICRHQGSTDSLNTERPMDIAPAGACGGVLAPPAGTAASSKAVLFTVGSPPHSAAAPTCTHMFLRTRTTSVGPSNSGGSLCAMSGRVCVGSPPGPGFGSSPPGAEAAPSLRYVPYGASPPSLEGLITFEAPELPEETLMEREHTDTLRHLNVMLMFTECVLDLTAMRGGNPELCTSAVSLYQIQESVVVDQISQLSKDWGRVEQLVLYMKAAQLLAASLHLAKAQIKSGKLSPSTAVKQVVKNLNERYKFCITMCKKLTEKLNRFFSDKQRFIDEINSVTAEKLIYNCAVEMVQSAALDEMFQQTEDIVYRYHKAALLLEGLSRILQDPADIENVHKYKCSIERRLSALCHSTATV", "in_short": "as §1"}, "GRK2(h)": {"molecular_target": "GRK2(h) (Homo sapiens, UniProt P25098)", "in_short": "as §1"}, "MOK(h)": {"molecular_target": "MOK(h) (Homo sapiens, UniProt Q9UQ07)", "sequence (Q9UQ07 whole entry)": "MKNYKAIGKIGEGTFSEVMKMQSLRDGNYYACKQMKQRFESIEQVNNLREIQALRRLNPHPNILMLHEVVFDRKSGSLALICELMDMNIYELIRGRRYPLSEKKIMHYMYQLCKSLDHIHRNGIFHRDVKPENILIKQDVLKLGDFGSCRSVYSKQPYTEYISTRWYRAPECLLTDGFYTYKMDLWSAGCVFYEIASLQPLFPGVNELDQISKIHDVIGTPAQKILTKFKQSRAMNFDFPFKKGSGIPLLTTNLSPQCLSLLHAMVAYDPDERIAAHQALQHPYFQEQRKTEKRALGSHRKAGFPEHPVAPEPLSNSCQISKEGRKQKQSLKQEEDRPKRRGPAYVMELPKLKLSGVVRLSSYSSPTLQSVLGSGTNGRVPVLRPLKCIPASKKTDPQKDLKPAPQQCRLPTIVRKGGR", "in_short": "as §1"}, "GCN2(h)": {"molecular_target": "T2, GCN2(h) (Homo sapiens, UniProt Q9P2K8)", "T2 construct": "gene EIF2AK4", "in_short": "as §1"}, "MSSK1(h)": {"molecular_target": "T3, MSSK1(h) (Homo sapiens, UniProt Q9UPE1)", "T3 construct": "gene SRPK3", "in_short": "as §1"}, "ACTR2(h)": {"molecular_target": "T4, ACTR2(h) (Homo sapiens, UniProt P27037)", "T4 construct": "gene ACVR2A", "in_short": "as §1"}, "SRMS(h)": {"molecular_target": "SRMS(h) (Homo sapiens, UniProt Q9H3Y6)", "in_short": "as §1"}, "ASK1(h)": {"molecular_target": "T5, ASK1(h) (Homo sapiens, UniProt Q99683)", "T5 construct": "gene MAP3K5", "in_short": "as §1"}, "TAF1L(h)": {"molecular_target": "TAF1L(h) (Homo sapiens, UniProt Q8IZX4)", "in_short": "as §1"}, "CHK2(R145W)(h)": {"molecular_target": "T6, CHK2(R145W)(h) (Homo sapiens, UniProt O96017, R145W)", "T6 construct": "gene CHEK2", "in_short": "as §1"}, "Haspin(h)": {"molecular_target": "Haspin(h) (Homo sapiens, UniProt Q8TF76)", "sequence (Q8TF76 whole entry)": "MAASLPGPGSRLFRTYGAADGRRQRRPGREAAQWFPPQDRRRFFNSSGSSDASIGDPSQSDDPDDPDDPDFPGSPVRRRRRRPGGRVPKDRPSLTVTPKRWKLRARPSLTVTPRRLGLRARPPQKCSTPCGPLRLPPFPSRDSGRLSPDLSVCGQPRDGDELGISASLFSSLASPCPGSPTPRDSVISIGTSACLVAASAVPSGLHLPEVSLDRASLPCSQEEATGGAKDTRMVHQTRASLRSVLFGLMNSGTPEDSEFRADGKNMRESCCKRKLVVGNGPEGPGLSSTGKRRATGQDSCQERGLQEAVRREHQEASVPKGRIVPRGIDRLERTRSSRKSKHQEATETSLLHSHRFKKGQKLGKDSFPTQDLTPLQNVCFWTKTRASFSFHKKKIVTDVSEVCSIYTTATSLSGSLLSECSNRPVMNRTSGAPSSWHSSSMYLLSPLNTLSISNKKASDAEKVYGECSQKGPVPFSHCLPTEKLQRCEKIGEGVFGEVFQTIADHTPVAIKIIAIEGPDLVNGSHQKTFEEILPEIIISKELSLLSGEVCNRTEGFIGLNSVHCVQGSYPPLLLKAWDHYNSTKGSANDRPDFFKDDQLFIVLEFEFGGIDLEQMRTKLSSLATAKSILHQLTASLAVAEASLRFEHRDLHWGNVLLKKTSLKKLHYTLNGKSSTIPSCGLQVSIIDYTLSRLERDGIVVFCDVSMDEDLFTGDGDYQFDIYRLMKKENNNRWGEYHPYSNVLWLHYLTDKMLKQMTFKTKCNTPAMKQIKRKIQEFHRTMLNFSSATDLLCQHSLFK", "in_short": "as §1"}, "PKCζ(h)": {"molecular_target": "T7, PKCζ(h) (Homo sapiens, UniProt Q05513)", "T7 construct": "gene PRKCZ", "in_short": "as §1"}, "MST1(h)": {"molecular_target": "T8, MST1(h) (Homo sapiens, UniProt Q13043)", "T8 construct": "gene STK4", "in_short": "as §1"}, "Mnk2(h)": {"molecular_target": "T9, Mnk2(h) (Homo sapiens, UniProt Q9HBH9)", "T9 construct": "gene MKNK2", "in_short": "as §1"}, "MAP4K4(h)": {"molecular_target": "MAP4K4(h) (Homo sapiens, UniProt O95819)", "sequence (O95819 whole entry)": "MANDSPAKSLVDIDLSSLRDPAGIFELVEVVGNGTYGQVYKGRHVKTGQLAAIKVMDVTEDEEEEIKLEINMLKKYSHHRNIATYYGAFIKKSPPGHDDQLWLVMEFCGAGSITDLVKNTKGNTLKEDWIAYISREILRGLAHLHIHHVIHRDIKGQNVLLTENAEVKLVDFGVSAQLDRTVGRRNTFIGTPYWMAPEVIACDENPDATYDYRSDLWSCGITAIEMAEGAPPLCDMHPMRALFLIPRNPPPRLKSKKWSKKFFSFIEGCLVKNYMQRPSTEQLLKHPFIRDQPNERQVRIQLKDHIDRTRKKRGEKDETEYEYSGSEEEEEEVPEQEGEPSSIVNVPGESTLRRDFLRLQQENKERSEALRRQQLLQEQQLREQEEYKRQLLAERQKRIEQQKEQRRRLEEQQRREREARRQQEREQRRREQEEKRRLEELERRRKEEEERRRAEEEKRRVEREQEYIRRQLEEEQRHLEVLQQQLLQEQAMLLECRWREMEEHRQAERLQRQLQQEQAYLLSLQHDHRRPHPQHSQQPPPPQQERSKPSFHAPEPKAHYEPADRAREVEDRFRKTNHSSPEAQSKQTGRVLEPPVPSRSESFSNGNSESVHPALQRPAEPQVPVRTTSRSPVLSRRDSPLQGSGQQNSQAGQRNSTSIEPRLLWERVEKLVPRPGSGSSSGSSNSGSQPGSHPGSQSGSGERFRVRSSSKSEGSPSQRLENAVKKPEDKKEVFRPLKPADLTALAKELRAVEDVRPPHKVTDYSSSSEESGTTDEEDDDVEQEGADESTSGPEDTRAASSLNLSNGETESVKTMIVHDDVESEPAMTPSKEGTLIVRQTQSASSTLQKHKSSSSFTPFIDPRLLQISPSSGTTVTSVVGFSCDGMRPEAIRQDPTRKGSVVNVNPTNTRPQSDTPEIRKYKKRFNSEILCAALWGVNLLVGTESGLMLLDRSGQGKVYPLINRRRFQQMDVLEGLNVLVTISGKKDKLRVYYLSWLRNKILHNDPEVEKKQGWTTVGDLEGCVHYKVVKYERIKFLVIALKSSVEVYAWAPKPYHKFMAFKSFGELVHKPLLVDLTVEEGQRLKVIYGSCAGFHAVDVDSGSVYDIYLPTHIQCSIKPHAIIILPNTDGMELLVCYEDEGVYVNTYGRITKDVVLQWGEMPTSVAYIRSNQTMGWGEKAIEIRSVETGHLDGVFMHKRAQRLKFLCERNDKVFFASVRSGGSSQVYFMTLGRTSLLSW", "in_short": "as §1"}, "TSSK1(h)": {"molecular_target": "T10, TSSK1(h) (Homo sapiens, UniProt Q9BXA7)", "T10 construct": "gene TSSK1B", "T10 sequence (Q9BXA7 whole entry)": "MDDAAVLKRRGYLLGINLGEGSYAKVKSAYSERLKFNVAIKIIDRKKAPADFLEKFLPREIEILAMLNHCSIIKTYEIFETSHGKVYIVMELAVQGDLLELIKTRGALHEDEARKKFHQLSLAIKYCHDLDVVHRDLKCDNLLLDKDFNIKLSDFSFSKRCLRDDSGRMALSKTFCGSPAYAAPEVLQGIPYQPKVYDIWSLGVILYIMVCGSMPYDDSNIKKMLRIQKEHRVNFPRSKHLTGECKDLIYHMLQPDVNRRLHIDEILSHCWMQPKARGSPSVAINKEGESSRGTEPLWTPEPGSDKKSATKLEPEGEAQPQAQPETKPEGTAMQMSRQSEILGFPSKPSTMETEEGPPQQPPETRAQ", "in_short": "as §1"}, "PDHK4(h)": {"molecular_target": "T11, PDHK4(h) (Homo sapiens, UniProt Q16654)", "T11 construct": "gene PDK4", "T11 sequence (Q16654 whole entry)": "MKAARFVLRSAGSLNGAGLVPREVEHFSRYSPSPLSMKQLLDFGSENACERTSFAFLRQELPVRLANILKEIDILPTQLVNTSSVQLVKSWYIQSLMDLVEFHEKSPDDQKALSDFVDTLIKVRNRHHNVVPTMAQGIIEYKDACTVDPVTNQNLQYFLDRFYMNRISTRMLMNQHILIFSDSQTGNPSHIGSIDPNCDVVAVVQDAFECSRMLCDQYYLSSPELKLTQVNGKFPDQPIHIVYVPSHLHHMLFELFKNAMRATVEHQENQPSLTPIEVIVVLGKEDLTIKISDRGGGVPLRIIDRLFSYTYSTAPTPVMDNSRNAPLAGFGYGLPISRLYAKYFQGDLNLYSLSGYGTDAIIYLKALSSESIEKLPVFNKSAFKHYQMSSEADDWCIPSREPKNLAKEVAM", "in_short": "as §1"}, "PKBβ(h)": {"molecular_target": "T12, PKBβ(h) (Homo sapiens, UniProt P31751)", "T12 construct": "gene AKT2", "in_short": "as §1"}, "JNK1α1(h)": {"molecular_target": "T13, JNK1α1(h) (Homo sapiens, UniProt P45983)", "T13 construct": "gene MAPK8; isoform alpha1", "in_short": "as §1"}, "ALK6(h)": {"molecular_target": "T14, ALK6(h) (Homo sapiens, UniProt O00238)", "T14 construct": "gene BMPR1B", "T14 sequence (O00238 whole entry)": "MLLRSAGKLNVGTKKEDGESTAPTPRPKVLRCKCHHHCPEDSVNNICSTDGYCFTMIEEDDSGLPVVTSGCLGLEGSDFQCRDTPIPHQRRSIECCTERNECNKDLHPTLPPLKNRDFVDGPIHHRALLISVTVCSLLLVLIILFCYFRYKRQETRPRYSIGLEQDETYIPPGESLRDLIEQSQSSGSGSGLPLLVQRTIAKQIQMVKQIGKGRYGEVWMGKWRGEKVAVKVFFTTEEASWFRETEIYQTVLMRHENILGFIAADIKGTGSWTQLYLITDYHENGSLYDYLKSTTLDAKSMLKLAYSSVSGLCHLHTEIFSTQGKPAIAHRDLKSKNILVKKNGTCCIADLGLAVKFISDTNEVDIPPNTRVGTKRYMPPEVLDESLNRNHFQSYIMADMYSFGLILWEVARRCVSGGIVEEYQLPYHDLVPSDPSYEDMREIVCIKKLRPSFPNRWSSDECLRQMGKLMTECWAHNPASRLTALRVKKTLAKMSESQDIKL", "in_short": "as §1"}, "Fgr(h)": {"molecular_target": "Fgr(h) (Homo sapiens, UniProt P09769)", "in_short": "as §1"}, "EphA3(h)": {"molecular_target": "EphA3(h) (Homo sapiens, UniProt P29320)", "in_short": "as §1"}}}
{"compound": "C1=C(c2nc(-c3cnn(C4CCNCC4)c3)cn3cc(-c4ccccc4)nc23)CCOC1", "note": "[YL-939]", "values": [{"measurement": "remaining activity at 10 µM", "setting": "Wee1B(h)", "value": 92, "unit": "%"}, {"measurement": "remaining activity at 10 µM", "setting": "ULK2(h)", "value": 77, "unit": "%"}, {"measurement": "remaining activity at 10 µM", "setting": "GRK2(h)", "value": 111, "unit": "%"}, {"measurement": "remaining activity at 10 µM", "setting": "MOK(h)", "value": 88, "unit": "%"}, {"measurement": "remaining activity at 10 µM", "setting": "GCN2(h)", "value": 67, "unit": "%"}, {"measurement": "remaining activity at 10 µM", "setting": "MSSK1(h)", "value": 87, "unit": "%"}, {"measurement": "remaining activity at 10 µM", "setting": "ACTR2(h)", "value": 94, "unit": "%"}, {"measurement": "remaining activity at 10 µM", "setting": "SRMS(h)", "value": 122, "unit": "%"}, {"measurement": "remaining activity at 10 µM", "setting": "ASK1(h)", "value": 110, "unit": "%"}, {"measurement": "remaining activity at 10 µM", "setting": "TAF1L(h)", "value": 84, "unit": "%"}, {"measurement": "remaining activity at 10 µM", "setting": "CHK2(R145W)(h)", "value": 98, "unit": "%"}, {"measurement": "remaining activity at 10 µM", "setting": "Haspin(h)", "value": 100, "unit": "%"}, {"measurement": "remaining activity at 10 µM", "setting": "PKCζ(h)", "value": 94, "unit": "%"}, {"measurement": "remaining activity at 10 µM", "setting": "MST1(h)", "value": 91, "unit": "%"}, {"measurement": "remaining activity at 10 µM", "setting": "Mnk2(h)", "value": 74, "unit": "%"}, {"measurement": "remaining activity at 10 µM", "setting": "MAP4K4(h)", "value": 86, "unit": "%"}, {"measurement": "remaining activity at 10 µM", "setting": "TSSK1(h)", "value": 80, "unit": "%"}, {"measurement": "remaining activity at 10 µM", "setting": "PDHK4(h)", "value": 109, "unit": "%"}, {"measurement": "remaining activity at 10 µM", "setting": "PKBβ(h)", "value": 87, "unit": "%"}, {"measurement": "remaining activity at 10 µM", "setting": "JNK1α1(h)", "value": 109, "unit": "%"}, {"measurement": "remaining activity at 10 µM", "setting": "ALK6(h)", "value": 105, "unit": "%"}, {"measurement": "remaining activity at 10 µM", "setting": "Fgr(h)", "value": 76, "unit": "%"}, {"measurement": "remaining activity at 10 µM", "setting": "EphA3(h)", "value": 73, "unit": "%"}]}
